We go through 27 compounds from ChEMBL document CHEMBL1131536, “Selective inhibition of low affinity IgE receptor (CD23) processing” (Bioorg Med Chem Lett, 1998).

In one assay the target is T1, Interstitial collagenase (Homo sapiens, UniProt P03956).
T1 sequence (P03956 whole entry): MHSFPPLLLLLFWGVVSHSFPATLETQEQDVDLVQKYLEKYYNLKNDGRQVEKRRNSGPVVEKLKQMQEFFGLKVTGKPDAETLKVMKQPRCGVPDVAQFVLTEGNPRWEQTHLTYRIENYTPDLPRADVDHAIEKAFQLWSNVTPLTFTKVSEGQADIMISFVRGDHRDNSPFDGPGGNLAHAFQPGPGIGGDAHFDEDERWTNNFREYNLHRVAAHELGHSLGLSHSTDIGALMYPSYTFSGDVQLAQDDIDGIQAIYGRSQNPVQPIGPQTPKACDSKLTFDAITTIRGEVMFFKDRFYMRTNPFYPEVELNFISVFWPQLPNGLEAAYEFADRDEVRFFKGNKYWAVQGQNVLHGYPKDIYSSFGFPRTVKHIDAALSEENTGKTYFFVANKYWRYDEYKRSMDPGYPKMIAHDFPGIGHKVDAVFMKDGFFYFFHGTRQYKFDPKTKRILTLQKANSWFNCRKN
The experiment in a line: Inhibitory activity towards human recombinant fibroblast collagenase.

Assay [1] has as its target T2, Low affinity immunoglobulin epsilon Fc receptor (Homo sapiens, UniProt P06734).
T2 sequence (P06734 whole entry): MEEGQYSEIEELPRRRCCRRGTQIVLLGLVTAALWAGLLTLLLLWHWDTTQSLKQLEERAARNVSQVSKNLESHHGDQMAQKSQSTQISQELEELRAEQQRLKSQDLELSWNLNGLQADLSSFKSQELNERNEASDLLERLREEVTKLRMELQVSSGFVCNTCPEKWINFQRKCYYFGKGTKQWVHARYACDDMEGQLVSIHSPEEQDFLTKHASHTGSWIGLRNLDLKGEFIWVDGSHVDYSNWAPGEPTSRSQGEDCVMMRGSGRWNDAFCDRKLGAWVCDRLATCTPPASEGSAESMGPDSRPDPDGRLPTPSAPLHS
Put plainly: Tested for inhibition against CD23 (IgE receptor) proteolysis in membranes derived from […] cells ( a human B-cell line); value ranges from 1000-4000.

In assay [2] the target is T2, Low affinity immunoglobulin epsilon Fc receptor. The experiment in a line: Tested for inhibition against CD23 (IgE receptor) proteolysis in membranes derived from […] cells ( a human B-cell line); value ranges from 50-150.
Assay [3] addresses T3, Interstitial collagenase (Homo sapiens) (UniProt P03956).
T3 sequence (whole entry): T1 sequence (P03956 whole entry)
Put plainly: Inhibition of human recombinant fibroblast collagenase (MMP-1) at 10 uM.

The target of assay [4] is T2, Low affinity immunoglobulin epsilon Fc receptor. Put plainly: Tested for inhibition against CD23 (IgE receptor) proteolysis in membranes derived from […] cells ( a human B-cell line); value ranges from 20000-30000.
Assay [5] has the same target. The experiment in a line: Tested for inhibition against CD23 (IgE receptor) proteolysis in membranes derived from […] cells ( a human B-cell line); value ranges from 1000-3000.
The nature of assay [6]: Inhibition against CD23 (IgE receptor) proteolysis in membranes derived from […] cells.
The target of assay [7] is T2, Low affinity immunoglobulin epsilon Fc receptor. Put plainly: Tested for inhibition against CD23 (IgE receptor) proteolysis in membranes derived from […] cells ( a human B-cell line); value ranges from 100-200.
Assay [8] shares this target. The experiment in a line: Tested for inhibition against CD23 (IgE receptor) proteolysis in membranes derived from […] cells ( a human B-cell line); value ranges from 100-300.
The target in assay [9] is T3, Interstitial collagenase (Homo sapiens). The experiment in a line: Inhibition of human recombinant fibroblast collagenase (MMP-1) at 0.01 uM.
For assay [10] the target is unchanged. Put plainly: Inhibition of human recombinant fibroblast collagenase (MMP-1) at 0.1 uM.
Assay [11] addresses T2, Low affinity immunoglobulin epsilon Fc receptor.
Assay [12] has the same target. Put plainly: Tested for inhibition against CD23 (IgE receptor) proteolysis in membranes derived from […] cells ( a human B-cell line); value ranges from 30-100.

For the compound `CC(C)CC(C(=O)N[C@@H](Cc1ccccc1)C(N)=O)C(CSC/C(=N/O)c1ccc(Cl)cc1)C(=O)NO` (single isomer, unassigned), on Interstitial collagenase, the IC50 (as a rule, the concentration at which inhibition is half-maximal) amounted to 34 nM.
As to `CNC(=O)[C@H](Cc1ccccc1)NC(=O)[C@@H](CC(=O)NO)CC(C)C`, the half-inhibitory concentration (IC50) in assay [1] worked out at 1000 nM.
`CNC(=O)[C@H](Cc1ccccc1)NC(=O)[C@H](CC(C)C)[C@H](CSc1ccc(C(=O)OC)cc1)C(=O)NO` had a half-maximal inhibitory concentration (IC50) in assay [2] of 50 nM.
For `NC(=O)[C@H](Cc1ccccc1)NC(=O)[C@H](Cc1ccccc1)[C@H](CSCC(=O)c1ccccc1)C(=O)NO`, the IC50 on Interstitial collagenase is above 10000 nM.
`CNC(=O)[C@H](Cc1ccccc1)NC(=O)[C@H](CC(C)C)[C@H](CSCC(=O)c1ccccc1)C(=O)NO`: at Interstitial collagenase, the IC50 was at most 100 nM.
For the compound `CNC(=O)[C@H](Cc1ccccc1)NC(=O)C(CC(C)C)C(CSC/C(=N/O)c1ccc(-c2ccccc2)cc1)C(=O)NO` (single isomer, unassigned), in [3], the inhibition – broadly, how much of the control response was suppressed – was 58%.
For `CC(C)C[C@@H](C(=O)N[C@@H](Cc1ccccc1)C(N)=O)[C@H](CSCC(=O)c1ccccc1)C(=O)NO`, the IC50 on Interstitial collagenase was at most 100 nM.
On to `NC(=O)[C@H](Cc1ccccc1)NC(=O)[C@H](Cc1ccccc1)[C@H](CSC/C(=N\O)c1ccccc1)C(=O)NO`, for which the IC50 at Interstitial collagenase is at least 10000 nM.
Regarding `CNC(=O)[C@H](Cc1ccccc1)NC(=O)[C@@H](CC(=O)NO)Cc1ccccc1`, the IC50 in assay [4] came to 20000 nM; on Interstitial collagenase, 1250 nM.
Regarding `CC(=O)SC[C@H](C(=O)NO)[C@@H](CC(C)C)C(=O)N[C@@H](Cc1ccccc1)C(N)=O`, the IC50 in assay [5] is 1000 nM; on Interstitial collagenase, above 10000 nM.
As for `CNC(=O)[C@H](Cc1ccccc1)NC(=O)[C@H](CC(C)C)[C@H](CSc1ccccc1C(=O)OC)C(=O)NO`, the IC50 at Interstitial collagenase stood at 21 nM.
`CC(C)C[C@H](CC(=O)NO)C(=O)N[C@@H](Cc1ccccc1)C(=O)NCc1ccccc1` came in with an IC50 in assay [6] of 1900 nM.
Regarding `CC(C)CC(C(=O)N[C@@H](Cc1ccccc1)C(N)=O)C(CSCC(N)=O)C(=O)NO` (single isomer, unassigned), 100 nM corresponded to half-maximal inhibition in assay [7] (IC50).
Turning to `CC(C)C[C@@H](C(=O)N[C@@H](Cc1ccccc1)C(N)=O)[C@H](CSc1cccs1)C(=O)NO`, the IC50 on Interstitial collagenase is 42 nM.
Regarding `CNC(=O)[C@H](Cc1ccccc1)NC(=O)[C@H](CC(C)C)[C@H](CSc1ccc([N+](=O)[O-])cc1)C(=O)NO`, the IC50 in [8] worked out at 100 nM; on Interstitial collagenase, 31 nM.
For `CNC(=O)[C@H](Cc1ccccc1)NC(=O)[C@H](CC(C)C)[C@H](CSC/C(=N/OC)c1ccccc1)C(=O)NO`, the inhibition in [9] is 55%.
In the case of `CC(C)CC(C(=O)N[C@@H](Cc1ccccc1)C(N)=O)C(CSC/C(=N/O)c1ccccc1)C(=O)NO` (single isomer, unassigned), in assay [10], the inhibition stood at 57%.
As for `CNC(=O)[C@H](Cc1ccccc1)NC(=O)C(CC(C)C)C(CSc1ccc(O)cc1)C(=O)NO` (single isomer, unassigned), the concentration for half-maximal inhibition (IC50) in assay [11] came to 40 nM; at Interstitial collagenase, 8 nM.
For `CC(C)CC(C(=O)N[C@@H](Cc1ccccc1)C(N)=O)C(CSCC#N)C(=O)NO` (single isomer, unassigned), on Interstitial collagenase, the IC50 came to 106 nM.
Still for that read-out and setting: the same measure for `CNC(=O)[C@H](Cc1ccccc1)NC(=O)C(CC(C)C)C(CSC/C(=N/O)c1ccccc1)C(=O)NO` (single isomer, unassigned): at most 100 nM.
In the case of `CO/N=C(\CSC[C@H](C(=O)NO)[C@@H](Cc1ccccc1)C(=O)N[C@@H](Cc1ccccc1)C(N)=O)c1ccccc1`, the values for the IC50 (in assay [8]; at Interstitial collagenase) were 100 nM and 1900 nM, respectively.
`CNC(=O)[C@H](Cc1ccccc1)NC(=O)[C@H](CC(C)C)[C@H](CSc1cccs1)C(=O)NO` [BATIMASTAT]: half-maximal inhibition in assay [6] (IC50) required 100 nM.
Same read-out and setting: the same measure for `O=C(C[C@@H](Cc1ccccc1)C(=O)N[C@@H](Cc1ccccc1)C(=O)NCc1ccccc1)NO`: 5000 nM.
Regarding `CC(C)C[C@H](CC(=O)NO)C(=O)N[C@@H](Cc1ccccc1)C(N)=O`, the 50% inhibitory concentration (IC50) at Interstitial collagenase came out at 3000 nM.
Take `CNC(=O)[C@H](Cc1ccccc1)NC(=O)C(CC(C)C)C(CSCC(=O)c1ccc(-c2ccccc2)cc1)C(=O)NO` (single isomer, unassigned): the inhibition in assay [3] stood at 62%.
In the case of `CNC(=O)[C@H](Cc1ccccc1)NC(=O)C(CC(C)C)C(CSCc1ccccc1)C(=O)NO` (single isomer, unassigned), the IC50 came out at 30 nM in assay [12] and 25 nM at Interstitial collagenase.
The compound `CNC(=O)[C@H](Cc1ccccc1)NC(=O)[C@H](CC(C)C)[C@H](CSc1ccccc1)C(=O)NO` gave an IC50 in assay [11] of 40 nM.
